{"source": "patent US20180140578A1", "about": "“METHODS AND COMPOSITIONS FOR THE DIAGNOSIS AND SELECTIVE TREATMENT OF CANCER” (Board of Regents of the University of Texas System, priority 2016, published 2018)", "assay_in_all_cases": "IC50 assay, NSCLC cell lines (Cell Titer Glo, total ATP)", "assay_type_in_all_cases": "cell-based", "key": {"A427": {"tested_on": "A427", "settings": "Homo sapiens", "method": "(§1) Cells were plated at ˜15% confluence in a media comprising 5% concentration of fetal bovine serum supplemented with RPMI, which included 2 mM L-Glutamine in a 96 well dish. […] Following three days of incubation in a 5% CO2 incubator, the total ATP in each well was quantified using Cell Titer Glo (Promega). […] The solid lines represent the medians."}, "A549": {"tested_on": "A549", "settings": "Homo sapiens", "method": "as §1"}, "H1155": {"tested_on": "H1155", "settings": "Homo sapiens", "method": "as §1"}, "H125": {"tested_on": "H125", "settings": "Homo sapiens", "method": "as §1"}, "H1355": {"tested_on": "H1355", "settings": "Homo sapiens", "method": "as §1"}, "H1373": {"tested_on": "H1373", "settings": "Homo sapiens", "method": "as §1"}, "H1581": {"tested_on": "H1581", "settings": "Homo sapiens", "method": "as §1"}, "H1648": {"tested_on": "H1648", "settings": "Homo sapiens", "method": "as §1"}, "H1650": {"tested_on": "H1650", "settings": "Homo sapiens", "method": "as §1"}, "H1755": {"tested_on": "H1755", "settings": "Homo sapiens", "method": "as §1"}, "H1944": {"tested_on": "H1944", "settings": "Homo sapiens", "method": "as §1"}, "H1993": {"tested_on": "H1993", "settings": "Homo sapiens", "method": "as §1"}, "H2009": {"tested_on": "H2009", "settings": "Homo sapiens", "method": "as §1"}, "H2122": {"tested_on": "H2122", "settings": "Homo sapiens", "method": "as §1"}, "H2170": {"tested_on": "H2170", "settings": "Homo sapiens", "method": "as §1"}, "H2250": {"tested_on": "H2250", "settings": "Homo sapiens", "method": "as §1"}, "H2347": {"tested_on": "H2347", "settings": "Homo sapiens", "method": "as §1"}, "H2452": {"tested_on": "H2452", "settings": "Homo sapiens", "method": "as §1"}, "H2882": {"tested_on": "H2882", "settings": "Homo sapiens", "method": "as §1"}, "H460": {"tested_on": "H460", "settings": "Homo sapiens, NCI-H460, read-out: Indisulam IC50 (log 10) (converted), U2AF1 WT", "method": "as §1"}, "H820": {"tested_on": "H820", "settings": "Homo sapiens", "method": "as §1"}, "HCC1359": {"tested_on": "HCC1359", "settings": "Homo sapiens", "method": "as §1"}, "HCC2279": {"tested_on": "HCC2279", "settings": "Homo sapiens", "method": "as §1"}, "HCC2450": {"tested_on": "HCC2450", "settings": "Homo sapiens", "method": "as §1"}, "HCC4017": {"tested_on": "HCC4017", "settings": "Homo sapiens", "method": "as §1"}, "HCC95": {"tested_on": "HCC95", "settings": "Homo sapiens", "method": "as §1"}, "LC-2/AD": {"tested_on": "LC-2/AD", "settings": "Homo sapiens", "method": "as §1"}, "[1]": {"settings": "read-out: Indisulam IC50 (log 10) (converted), U2AF1 WT"}, "[2]": {"settings": "read-out: Indisulam IC50, U2AF1 WT"}}, "note": "Read-outs that look alike come from different tables or passages of the source."}
{"smiles": "NS(=O)(=O)c1ccc(S(=O)(=O)Nc2cccc3c(Cl)c[nH]c23)cc1", "note": "[Indisulam, indisulam]", "values": [{"measurement": "IC50", "setting": "A427; A-427, read-out: Indisulam IC50 (log 10) (converted), U2AF1 WT", "value": 13.9, "unit": "µM"}, {"measurement": "IC50", "setting": "A427; A-427, read-out: Indisulam IC50, U2AF1 WT", "value": 13.9, "unit": "µM"}, {"measurement": "IC50", "setting": "A549; [1]", "value": 46.6, "unit": "µM"}, {"measurement": "IC50", "setting": "A549; [2]", "value": 46.6, "unit": "µM"}, {"measurement": "IC50", "setting": "H1155; NCI-H1155, read-out: Indisulam IC50 (log 10) (converted), U2AF1 WT", "value": 0.242, "unit": "µM"}, {"measurement": "IC50", "setting": "H1155; NCI-H1155, read-out: Indisulam IC50, U2AF1 WT", "value": 0.242, "unit": "µM"}, {"measurement": "IC50", "setting": "H125; NCI-H125, read-out: Indisulam IC50 (log 10) (converted), U2AF1 WT", "value": 10.8, "unit": "µM"}, {"measurement": "IC50", "setting": "H125; NCI-H125, read-out: Indisulam IC50, U2AF1 WT", "value": 10.8, "unit": "µM"}, {"measurement": "IC50", "setting": "H1355; NCI-H1355, read-out: Indisulam IC50 (log 10) (converted), U2AF1 WT", "value": 2.5, "unit": "µM"}, {"measurement": "IC50", "setting": "H1355; NCI-H1355, read-out: Indisulam IC50, U2AF1 WT", "value": 2.5, "unit": "µM"}, {"measurement": "IC50", "setting": "H1373; NCI-H1373, read-out: Indisulam IC50 (log 10) (converted), U2AF1 S34F", "value": 0.23, "unit": "µM"}, {"measurement": "IC50", "setting": "H1373; NCI-H1373, read-out: Indisulam IC50, U2AF1 S34F", "value": 0.23, "unit": "µM"}, {"measurement": "IC50", "setting": "H1581; NCI-H1581, read-out: Indisulam IC50 (log 10) (converted), U2AF1 WT", "value": 19.2, "unit": "µM"}, {"measurement": "IC50", "setting": "H1581; NCI-H1581, read-out: Indisulam IC50, U2AF1 WT", "value": 19.2, "unit": "µM"}, {"measurement": "IC50", "setting": "H1648; NCI-H1648, read-out: Indisulam IC50 (log 10) (converted), U2AF1 WT", "value": 16.8, "unit": "µM"}, {"measurement": "IC50", "setting": "H1648; NCI-H1648, read-out: Indisulam IC50, U2AF1 WT", "value": 16.8, "unit": "µM"}, {"measurement": "IC50", "setting": "H1650; NCI-H1650, read-out: Indisulam IC50 (log 10) (converted), U2AF1 WT", "value": 31.9, "unit": "µM"}, {"measurement": "IC50", "setting": "H1650; NCI-H1650, read-out: Indisulam IC50, U2AF1 WT", "value": 31.9, "unit": "µM"}, {"measurement": "IC50", "setting": "H1755; NCI-H1755, read-out: Indisulam IC50 (log 10) (converted), U2AF1 WT", "value": 252, "unit": "µM"}, {"measurement": "IC50", "setting": "H1755; NCI-H1755, read-out: Indisulam IC50, U2AF1 WT", "value": 252, "unit": "µM"}, {"measurement": "IC50", "setting": "H1944; NCI-H1944, read-out: Indisulam IC50 (log 10) (converted), U2AF1 WT", "value": 163, "unit": "µM"}, {"measurement": "IC50", "setting": "H1944; NCI-H1944, read-out: Indisulam IC50, U2AF1 WT", "value": 163, "unit": "µM"}, {"measurement": "IC50", "setting": "H1993; NCI-H1993, read-out: Indisulam IC50 (log 10) (converted), U2AF1 WT", "value": 1.42, "unit": "µM"}, {"measurement": "IC50", "setting": "H1993; NCI-H1993, read-out: Indisulam IC50, U2AF1 WT", "value": 1.42, "unit": "µM"}, {"measurement": "IC50", "setting": "H2009; NCI-H2009, read-out: Indisulam IC50 (log 10) (converted), U2AF1 WT", "value": 17.4, "unit": "µM"}, {"measurement": "IC50", "setting": "H2009; NCI-H2009, read-out: Indisulam IC50, U2AF1 WT", "value": 17.4, "unit": "µM"}, {"measurement": "IC50", "setting": "H2122; NCI-H2122, read-out: Indisulam IC50 (log 10) (converted), U2AF1 WT", "value": 18.8, "unit": "µM"}, {"measurement": "IC50", "setting": "H2122; NCI-H2122, read-out: Indisulam IC50, U2AF1 WT", "value": 18.8, "unit": "µM"}, {"measurement": "IC50", "setting": "H2170; NCI-H2170, read-out: Indisulam IC50 (log 10) (converted), U2AF1 WT", "value": 29.6, "unit": "µM"}, {"measurement": "IC50", "setting": "H2170; NCI-H2170, read-out: Indisulam IC50, U2AF1 WT", "value": 29.6, "unit": "µM"}, {"measurement": "IC50", "setting": "H2250; [1]", "value": "≥ 500", "unit": "µM"}, {"measurement": "IC50", "setting": "H2250; [2]", "value": 1180, "unit": "µM"}, {"measurement": "IC50", "setting": "H2347; NCI-H2347, read-out: Indisulam IC50 (log 10) (converted), U2AF1 WT", "value": 13.5, "unit": "µM"}, {"measurement": "IC50", "setting": "H2347; NCI-H2347, read-out: Indisulam IC50, U2AF1 WT", "value": 13.5, "unit": "µM"}, {"measurement": "IC50", "setting": "H2452; NCI-H2452, read-out: Indisulam IC50 (log 10) (converted), U2AF1 WT", "value": 1.21, "unit": "µM"}, {"measurement": "IC50", "setting": "H2452; NCI-H2452, read-out: Indisulam IC50, U2AF1 WT", "value": 1.21, "unit": "µM"}, {"measurement": "IC50", "setting": "H2882; NCI-H2882, read-out: Indisulam IC50 (log 10) (converted), U2AF1 WT", "value": 12.2, "unit": "µM"}, {"measurement": "IC50", "setting": "H2882; NCI-H2882, read-out: Indisulam IC50, U2AF1 WT", "value": 12.2, "unit": "µM"}, {"measurement": "IC50", "setting": "H460", "value": "≥ 500", "unit": "µM"}, {"measurement": "IC50", "setting": "H820; NCI-H820, read-out: Indisulam IC50 (log 10) (converted), U2AF1 WT", "value": 5.17, "unit": "µM"}, {"measurement": "IC50", "setting": "H820; NCI-H820, read-out: Indisulam IC50, U2AF1 WT", "value": 5.17, "unit": "µM"}, {"measurement": "IC50", "setting": "HCC1359; read-out: Indisulam IC50 (log 10) (converted), U2AF1 WT (listed twice)", "value": "≥ 50", "unit": "µM"}, {"measurement": "IC50", "setting": "HCC1359; read-out: Indisulam IC50, U2AF1 WT (listed twice)", "value": "≥ 50", "unit": "µM"}, {"measurement": "IC50", "setting": "HCC2279; [1]", "value": 5.68, "unit": "µM"}, {"measurement": "IC50", "setting": "HCC2279; [2]", "value": 5.68, "unit": "µM"}, {"measurement": "IC50", "setting": "HCC2450; [1]", "value": 135, "unit": "µM"}, {"measurement": "IC50", "setting": "HCC2450; [2]", "value": 135, "unit": "µM"}, {"measurement": "IC50", "setting": "HCC4017; [1]", "value": 12.6, "unit": "µM"}, {"measurement": "IC50", "setting": "HCC4017; [2]", "value": 12.6, "unit": "µM"}, {"measurement": "IC50", "setting": "HCC95; [1]", "value": 9.5, "unit": "µM"}, {"measurement": "IC50", "setting": "HCC95; [2]", "value": 9.5, "unit": "µM"}, {"measurement": "IC50", "setting": "LC-2/AD; read-out: Indisulam IC50 (log 10) (converted), U2AF1 S34F", "value": 0.376, "unit": "µM"}, {"measurement": "IC50", "setting": "LC-2/AD; read-out: Indisulam IC50, U2AF1 S34F", "value": 0.376, "unit": "µM"}]}
